From article PMC7151078, “A Novel NMDA Receptor Antagonist Protects against Cognitive Decline Presented by Senescent Mice” (Pharmaceutics, 2020)

How the values were obtained:
SAMR1 and SAMP8 mice [1] = test: Oxidative stress: hydrogen peroxide levels (fluorimetric kit); assay type: in vivo, mouse; conditions: hippocampus, both RL-208 treated mice groups vs control groups
Description: Male SAMR1 and SAMP8 mice (n = 41) with 20-weeks-old were used to carry out cognitive and molecular analysis. The animals were randomly divided into four groups: SAMR1 control (SR1 Ct) group (n = 11), SAMP8 control (SP8 Ct) group (n = 8), SAMR1 treated with RL-208 (SR1 RL-208 (5 mg/Kg)) group (n = 10) and SAMP8 treated with RL-208 (SP8 RL-208 (5 mg/Kg)) group (n = 12). Animals had free access to food and water, under standard temperature conditions (22±2 °C) and 12h:12h light-dark cycles (300 lux/0 lux). RL-208, (3,4,8,9-tetramethyltetracyclo[4.4.0.0^3,9.0^4,8]dec-1-yl)-methylamine hydrochloride, (5 mg/kg/day) was administered through drinking water for four weeks before starting the cognitive test. RL-208 was administered up to euthanasia (Figure 1A). Water consumption was controlled each week for each cage and strain. Afterwards, RL-208 concentration was adjusted accordingly to reach the optimal dose for each cage. […]

SAMR1 and SAMP8 mice [2] = test: proBDNF and mBDNF protein levels in the hippocampus (ELISA); assay type: in vivo, mouse
Description: Male SAMR1 and SAMP8 mice (n = 41) with 20-weeks-old were used to carry out cognitive and molecular analysis. The animals were randomly divided into four groups: SAMR1 control (SR1 Ct) group (n = 11), SAMP8 control (SP8 Ct) group (n = 8), SAMR1 treated with RL-208 (SR1 RL-208 (5 mg/Kg)) group (n = 10) and SAMP8 treated with RL-208 (SP8 RL-208 (5 mg/Kg)) group (n = 12). Animals had free access to food and water, under standard temperature conditions (22±2 °C) and 12h:12h light-dark cycles (300 lux/0 lux). RL-208, (3,4,8,9-tetramethyltetracyclo[4.4.0.0^3,9.0^4,8]dec-1-yl)-methylamine hydrochloride, (5 mg/kg/day) was administered through drinking water for four weeks before starting the cognitive test. RL-208 was administered up to euthanasia (Figure 1A). Water consumption was controlled each week for each cage and strain. Afterwards, RL-208 concentration was adjusted accordingly to reach the optimal dose for each cage. Three days after the behavioural and cognitive tests, mice were euthanized by cervical dislocation. Brains were immediately removed from the skull. The hippocampus and cortex were then isolated and frozen in powdered dry ice. They were maintained at −80 °C for further use. Tissue samples were homogenized in lysis buffer containing phosphatase and protease inhibitors (Cocktail II, Sigma). Total protein levels were obtained, and protein concentration was determined by the method of Bradford. The hippocampal determination of pro-Brain-derived neurotrophic factor (proBDNF) and mature brain-derived neurotrophic factor (mBDNF) protein levels was performed using the enzyme-linked immunosorbent assay (ELISA) kit (Biosensis) according to the manufacturer’s instructions.

CYP2D6 = biological target: T1, CYP2D6 (Homo sapiens, UniProt P10635); test: Cytochrome inhibition, fluorescent detection (AMMC substrate); assay type: in vitro ADME; conditions: recombinant human CYP2D6
T1 construct: host or cells: insect cell microsomes
Description: To screen the inhibition potential of the compounds, recombinant human cytochrome P450 enzymes (CYP1A2, CYP2C9, CYP2C19, CYP2D6, and CYP3A4) and probe substrates were used with the fluorescent detection method. Incubations were conducted in 200-µL volume 96 well microtiter plates (COSTAR 3915). Addition of cofactor-buffer mixture (KH2PO4 buffer, 1.3 mM NADP+, 3.3 mM MgCl2, 3.3 mM Glucose-6-phosphate and 0.4 U/mL Glucose-6-phosphate Dehydrogenase), supersomes control, standard inhibitors (Furafyline, Tranylzypromine, Ketoconazole, Sulfaphenazole, and Quinidine; from Sigma Aldrich), and test compounds to plates were carried out using a a liquid handling station (Zephyr Caliper). The plate was then pre-incubated at 37 °C for 5 min, and the reaction initiated by the addition of pre-warmed enzyme/substrate (E/S) mix. […] Fluorescence per well was measured using a fluorescence plate reader (Tecan M1000 pro), and the percentage of inhibition was calculated.

T1 sequence (P10635 whole entry): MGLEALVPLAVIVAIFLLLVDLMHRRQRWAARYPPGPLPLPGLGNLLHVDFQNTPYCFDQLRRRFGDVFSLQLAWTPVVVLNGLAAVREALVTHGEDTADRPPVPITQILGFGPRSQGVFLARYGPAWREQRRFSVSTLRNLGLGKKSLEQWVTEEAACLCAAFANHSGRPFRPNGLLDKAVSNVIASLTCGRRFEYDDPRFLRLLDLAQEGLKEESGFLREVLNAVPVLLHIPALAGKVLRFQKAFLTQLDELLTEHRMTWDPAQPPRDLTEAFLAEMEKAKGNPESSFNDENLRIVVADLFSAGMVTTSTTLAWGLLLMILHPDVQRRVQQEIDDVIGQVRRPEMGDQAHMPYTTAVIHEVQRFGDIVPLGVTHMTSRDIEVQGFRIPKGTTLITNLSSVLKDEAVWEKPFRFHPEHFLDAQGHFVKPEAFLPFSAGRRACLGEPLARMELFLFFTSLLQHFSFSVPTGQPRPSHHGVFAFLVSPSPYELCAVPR

CYP2D6 inhibition (CYP2D6): 10 ± 3%
Structure (SMILES): CC12CC3CC1(C)C1(C)CC3(CN)CC21C.Cl [RL-208, (3,4,8,9-tetramethyltetracyclo [4.4.0.0^3,9.0^4,8]dec-1-yl)methylamine hydrochloride]
hydrogen peroxide (ROS) levels (SAMR1 and SAMP8 mice [1]): significant decrease
mature BDNF protein levels (SAMR1 and SAMP8 mice [2]; RL-208 treated mice vs control groups): significant augment
proBDNF protein levels (SAMR1 and SAMP8 mice [2]; SP8 treated vs control): significant reduction
proBDNF protein levels (differences) (SAMR1 and SAMP8 mice [2]; SR1 strain): not significant
